Patent publication US5519042A, “Method of treating hyperproliferative vascular disease” (priority 1994, dated 1996)

Test system: injured carotid arteries
Assay: Effect on intimal thickening in injured carotid arteries (balloon catheter injury, morphometry)
Assay type: in vivo, male Sprague-Dawley (SD) rats
Conditions: for Intima Percent (±S.E.): mean ± standard error, untreated injured control 46.06 ± 16.36
Method: The effect of N-(4-trifluoromethylphenyl)-5-methylisoxazole-carboxamide (compound I) on hyperproliferative vascular disease was established in an in vivo standard pharmacological test procedure that emulates the hyperproliferative effects observed in mammals that are undergoing intimal smooth muscle proliferation and are therefore developing restenosis. Cyclosporin A was also evaluated in these test procedure for the purpose of comparison.
Compound 1 was also evaluated in an in vivo standard pharmacological test procedure that emulates the vascular injury suffered and restenosis that develops following percutaneous transluminal coronary angioplasty in humans.
Intimal smooth muscle proliferation was produced by balloon catheter injury to the left carotid artery of groups of 6, male Sprague-Dawley (SD) rats. […] A balloon catheter (2 French Fogarty, Edwards Laboratories, Santa Anna, Calif.) was passed through the external carotid artery into the aorta. The balloon was then inflated with an amount of water sufficient to distend the common carotid artery and was then pulled back to the external carotid artery. The inflation and pull back were repeated three times. This procedure leads to complete denudation of the endothelium throughout the common carotid artery, and also some injury typically occurs to the medial smooth muscle cells.
During a 17-days period (3 days before operation to 13 days after operation), these rats were divided into 2 groups of 6 animals and treated daily with compound 1 (20 mg/kg/day, intraperitoneal (i.p.)) or cyclosporin A (3 mg/kg/day; i.p.).
An injured group not treated with any drug was used as an injured control to establish the amount of intimal thickening in the absence of treatment. The right carotid was used as an uninjured control in all groups.
After the 14 day post-operative period, the rats were sacrificed, the carotids removed. The mean areas of the intima, media and total blood vessel wall were measured by morphometry. The injured artery was also examined using histopathologic assays. Results are presented as an intima percent, expressed as follows: [formula]

## Cyclosporin A
3 mg/kg/day i.p.
  reduction in intimal thickening (in words): failed to produce any meaningful reduction in intimal thickening
3 mg/kg/day i.p., 14 days
  Intima Percent (±S.E.): 39.39 ± 26.06%

## Cc1oncc1C(=O)Nc1ccc(C(F)(F)F)cc1 [Compound 1, N-(4-trifluoromethylphenyl)-5-methylisoxazole-4-carboxamide]
20 mg/kg/day i.p.
  decrease in the mean percentage intimal thickening compared with the untreated injured control group: 83%
20 mg/kg/day i.p., 3 days before to 13 days after operation
  Intima Percent (±S.E.): 7.88 ± 7.88%
